Measured values reported in US10239870B2, “Dopamine D3 receptor antagonists” (priority 2014, dated 2019).
Counter-ions that a name gives are not always drawn.

Tests used:
[1] = molecular target: hD2 recombinant receptor (human dopamine receptor type 2, long variant, CHO-Gα16-hD2L cells) (Homo sapiens (Human), UniProt P14416); assay: cell-based; conditions: D2 fpKi, functional pKi; antagonism of dopamine EC80 calcium response (FLIPR)
[2] = molecular target: hD2 recombinant receptor (human dopamine receptor type 2, long variant, CHO-Gα16-hD2L membranes) (Homo sapiens (Human), UniProt P14416); conditions: displacement of 0.08 nM [3H]-Spiperone

Row | SMILES | Ki [1] [nM] | D2 pKi [2]
1 | Cn1c(SCCCN2CC[C@]3(CC3c3ccc(C(F)(F)F)cc3F)C2)nnc1C1CCOCC1 (single isomer, unassigned) [Example 71] | > 10000 | –
2 | Cn1c(SCCCN2CC[C@@]3(C[C@@H]3c3ccc(C(F)(F)F)cc3F)C2)nnc1C1CCOCC1 (single isomer, unassigned) [Example 74, (1S,3R or 1R,3S)-1-[2-fluoro-4-(trifluoromethyl)phenyl]-5-(3-{[4-methyl-5-(oxan-4-yl)-4H-1,2,4-triazol-3-yl]sulfanyl}propyl)-5-azaspiro[2.4]heptane hydrochloride] | 1260 | –
3 | Cn1c(SCCCN2CC[C@]3(C[C@H]3c3ccc(C(F)(F)F)cc3F)C2)nnc1C1CCOCC1 (single isomer, unassigned) [Example 75, (1R,3S or 1S,3R)-1-[2-fluoro-4-(trifluoromethyl)phenyl]-5-(3-{[4-methyl-5-(oxan-4-yl)-4H-1,2,4-triazol-3-yl]sulfanyl}propyl)-5-azaspiro[2.4]heptane hydrochloride] | > 10000 | –
4 | Cn1c(SCCCN2CC[C@]3(CC3c3ccc(C(F)(F)F)cc3F)C2)nnc1C1CCOCC1 (single isomer, unassigned) [Example 76] | 708 | –
5 | Cn1c(SCCCN2CC[C@]3(C[C@@H]3c3ccc(C(F)(F)F)cc3F)C2)nnc1C1CCOCC1 (single isomer, unassigned) [Example 79, hydrochloride] | 363 | –
6 | Cn1c(SCCCN2CC[C@]3(C[C@@H]3c3ccccc3)C2)nnc1C1CCOCC1 (single isomer, unassigned) [Example 83, hydrochloride] | > 10000 | –
7 | CC(=O)N1CCC(c2nnc(SCCCN3CC[C@]4(C[C@@H]4c4ccc(C(F)(F)F)cc4)C3)n2C)CC1 (single isomer, unassigned) [Example 100] | 1170 | –
8 | Cn1c(SCCCN2CC[C@]3(CC3c3ccc(C(F)(F)F)cc3)C2)nnc1N1CCOCC1 (single isomer, unassigned) [Example 114, hydrochloride] | 1620 | –
9 | Cn1c(SCCCN2CC[C@]3(CC3c3ccc(C(F)(F)F)cc3)C2)nnc1N1CCOCC1 (single isomer, unassigned) [Example 115] | 97.7 | –
10 | Cc1cnc(-c2nnc(SCCCN3CC[C@]4(CC4c4ccc(C(F)(F)F)cc4)C3)n2C)cn1 (stereo partly drawn) [Example 223, (1R,3S/1S,3R)-5-(3-{[4-methyl-5-(5-methylpyrazin-2-yl)-4H-1,2,4-triazol-3-yl]sulfanyl}propyl)-1-[4-(trifluoromethyl)phenyl]-5-azaspiro[2.4]heptane] | – | 6.00
11 | Cc1nccnc1-c1nnc(SCCCN2CC[C@]3(C[C@@H]3c3ccc(C(F)(F)F)cc3)C2)n1C [Example 224, (1R,3S/1S,3R)-5-(3-{[4-methyl-5-(3-methylpyrazin-2-yl)-4H-1,2,4-triazol-3-yl]sulfanyl}propyl)-1-[4-(trifluoromethyl)phenyl]-5-azaspiro[2.4]heptane] | – | 5.85
12 | Cn1c(SCCCN2CC[C@]3(C[C@@H]3c3ccc(C(F)(F)F)cc3)C2)nnc1-c1cnc(C(N)=O)cn1 [Example 228, 5-[4-methyl-5-({3-[(1R,3S)-1-[4-(trifluoromethyl)phenyl]-5-azaspiro[2.4]heptan-5-yl]propyl}sulfanyl)-4H-1,2,4-triazol-3-yl]pyrazine-2-carboxamide] | – | 6.33
13 | Cn1cccc1-c1nnc(SCCCN2CC[C@]3(CC3c3ccc(C(F)(F)F)cc3)C2)n1C (stereo partly drawn) [Example 258, (1R,3S/1S,3R)-5-(3-{[4-methyl-5-(1-methyl-1H-pyrrol-2-yl)-4H-1,2,4-triazol-3-yl]sulfanyl}propyl)-1-[4-(trifluoromethyl)phenyl]-5-azaspiro[2.4]heptane] | – | 6.26
14 | Cc1nnsc1-c1nnc(SCCCN2CC[C@]3(C[C@@H]3c3ccc(C(F)(F)F)cc3)C2)n1C.Cl [Example 262, (1R,3S)-5-(3-{[4-methyl-5-(4-methyl-1,2,3-thiadiazol-5-yl)-4H-1,2,4-triazol-3-yl]sulfanyl}propyl)-1-[4-(trifluoromethyl)phenyl]-5-azaspiro[2.4]heptane] | – | 6.18
15 | Cl.Cn1c(SCCCN2CC[C@]3(C[C@@H]3c3ccc(C(F)(F)F)cc3)C2)nnc1-c1cccn2cnnc12 [Example 267, (1R,3S)-5-{3-[(4-methyl-5-{[1,2,4]triazolo[4,3-a]pyridin-8-yl}-4H-1,2,4-triazol-3-yl)-sulfanyl]propyl}-1-[4-(trifluoromethyl)phenyl]-5-azaspiro[2.4]heptane] | – | 5.38

More lines, now with the values ahead:

Row | Ki [1] [nM] | D2 pKi [2] | SMILES
16 | 19.1 | – | Cc1ncoc1-c1nnc(SCCCN2CCC[C@]3(C[C@H]3c3ccc(C(F)(F)F)cc3)C2)n1C (racemic) [Example 310, (1R,3S/1S,3R)-5-(3-{[4-methyl-5-(4-methyl-1,3-oxazol-5-yl)-4H-1,2,4-triazol-3-yl]sulfanyl}propyl)-1-[4-(trifluoromethyl)phenyl]-5-azaspiro[2.5]octane]
17 | 871 | – | Cn1c(CCCCN2CC[C@]3(C[C@@H]3c3ccc(C(F)(F)F)cc3F)C2)nnc1C1CCOCC1 (single isomer, unassigned) [Example 295, hydrochloride]
18 | > 10000 | – | Cn1c(CCCCN2CC[C@]3(C[C@H]3c3ccc(C(F)(F)F)cc3)C2)nnc1C1CCOCC1 (single isomer, unassigned) [Example 299, (1S,3S or 1R,3R)-5-{4-[4-methyl-5-(oxan-4-yl)-4H-1,2,4-triazol-3-yl]butyl}-1-[4-(trifluoromethyl)phenyl]-5-azaspiro[2.4]heptane hydrochloride]
19 | > 10000 | – | Cn1c(CCCCN2CC[C@@]3(C[C@@H]3c3ccc(C(F)(F)F)cc3)C2)nnc1C1CCOCC1 (single isomer, unassigned) [Example 300, (1R,3R or 1S,3S)-5-{4-[4-methyl-5-(oxan-4-yl)-4H-1,2,4-triazol-3-yl]butyl}-1-[4-(trifluoromethyl)phenyl]-5-azaspiro[2.4]heptane hydrochloride]
20 | – | 5.80 | Cl.Cn1c(SCCCN2CC[C@]3(C[C@@H]3c3ccc(C(F)(F)F)cc3)C2)nnc1-c1ccc2nncn2c1 [Example 268, (1R,3S)-5-{3-[(4-methyl-5-{[1,2,4]triazolo[4,3-a]pyridin-6-yl}-4H-1,2,4-triazol-3-yl)-sulfanyl]propyl}-1-[4-(trifluoromethyl)phenyl]-5-azaspiro[2.4]heptane]
21 | – | 6.04 | Cn1c(SCCCN2CC[C@]3(C[C@@H]3c3ccc(C(F)(F)F)cc3F)C2)nnc1-c1ccn2cnnc2c1 [Example 270, (1S,3S)-1-[2-fluoro-4-(trifluoromethyl)phenyl]-5-{3-[(4-methyl-5-{[1,2,4]triazolo[4,3-a]pyridin-7-yl}-4H-1,2,4-triazol-3-yl)sulfanyl]propyl}-5-azaspiro[2.4]heptane]
22 | – | 5.91 | Cc1nnc2ccc(-c3nnc(SCCCN4CC[C@]5(C[C@@H]5c5ccc(C(F)(F)F)cc5)C4)n3C)cn12 [Example 271, (1R,3S)-5-{3-[(4-methyl-5-{3-methyl-[1,2,4]triazolo[4,3-a]pyridin-6-yl}-4H-1,2,4-triazol-3-yl)sulfanyl]propyl}-1-[4-(trifluoromethyl)phenyl]-5-azaspiro[2.4]heptane]
23 | – | 6.52 | Cl.Cn1c(SCCCN2CC[C@]3(C[C@@H]3c3ccc(C(F)(F)F)cc3)C2)nnc1-c1ccc(-c2nnco2)cc1 [Example 274, (1R,3S)-5-[3-({4-methyl-5-[4-(1,3,4-oxadiazol-2-yl)phenyl]-4H-1,2,4-triazol-3-yl}sulfanyl)propyl]-1-[4-(trifluoromethyl)phenyl]-5-azaspiro[2.4]heptane]
